This note sets out measurements from patent publication US9771366B2, “Substituted tetrahydropyrido[3′,2′:4,5]pyrrolo[1,2-a]pyrazine-2-carboxamides as RSK inhibitors” (Phoenix Molecular Designs, priority 2016, dated 2017).

One data set deals with RSK2 (Homo sapiens (Human), UniProt P51812). The data set can be described thus: Radioisotope kinase assay (SignalChem), RSK2. Format: biochemical. On the procedure: The assay conditions for the RSK2 kinase target were optimized to yield acceptable enzymatic activity. In addition, the assays were optimized to give high signal-to-noise ratio.
Radioisotope assays (SignalChem) were performed for the evaluation of the kinase target profiling and all assays were performed in a designated radioactive working area. The kinase targets were RSK1, RSK2, RSK3, RSK4 and MK2.
The assay was initiated by the addition of ^33P-ATP and the reaction mixture incubated at 30° C. for 15 minutes. After the incubation period, the assay was terminated by spotting 10 μL of the reaction mixture onto Multiscreen phosphocellulose P81 plate. The Multiscreen phosphocellulose P81 plate was washed 3 times for approximately 15 minutes each in a 1% phosphoric acid solution. The radioactivity on the P81 plate was counted in the presence of scintillation fluid in a Trilux scintillation counter.
(§1) Blank controls were set up for each target kinase which included all the assay components except the addition of the appropriate substrate (which was replaced with equal volume of assay dilution buffer). The corrected activity for each target kinase was determined by removing the blank control value.

In a further data set the target is RSK1 (Homo sapiens (Human), UniProt Q15418). The data set can be described thus: Radioisotope kinase assay (SignalChem), RSK1. Format: biochemical. On the procedure:
(§2) Radioisotope assays (SignalChem) were performed for the evaluation of the kinase target profiling and all assays were performed in a designated radioactive working area. The kinase targets were RSK1, RSK2, RSK3, RSK4 and MK2. The kinase assays (in duplicate) were performed at 30° C. for 15 minutes in a final volume of 25 μL according to the following assay reaction recipe: • Component 1: 5 μL of diluted active kinase target (100 ng per reaction) • Component 2: 5 μL of peptide substrate (0.5 μg per reaction) (for RSK1, RSK2, RSK3 and RSK4, RSK S6K substrate was used; for MK2, HSP27tide was used) • Component 3: 5 μL of kinase assay buffer • Component 4: 5 μL of compound described herein (various concentrations: 0, 0.1, 1, 10, 100 or 1000 nM or 1, 3, 10, 30, 100, 300 nM) • Component 5: 5 μL of ^33P-ATP (5 μM stock solution, 0.8 μCi; […])
(§3) The assay was initiated by the addition of ^33P-ATP and the reaction mixture incubated at 30° C. for 15 minutes. […] The radioactivity on the P81 plate was counted in the presence of scintillation fluid in a Trilux scintillation counter.
as §1

A further data set has as its target RSK3 (Homo sapiens (Human), UniProt Q15349). The data set can be described thus: Radioisotope kinase assay (SignalChem), RSK3. The format is biochemical. On the procedure: as §2, §3, §1
The target in the next data set is RSK4 (Homo sapiens (Human), UniProt Q9UK32). The data set can be described thus: Radioisotope kinase assay (SignalChem), RSK4. Format: biochemical. On the procedure: as §2, §3, §1
Data set [1] in a line: Colony forming unit hematopoietic stem cell assay. Format: cell-based, human. The following applies: human, CD34+ cells from human cord blood or peripheral blood; at 3.8 uM; read-out: cells viable in the HSC assay. The protocol:
The hematopoietic colony forming cell assay was conducted based on a protocol outlined by StemCell Technologies. […] Following the addition of CD34^+ cells isolated from human cord blood or peripheral blood (StemCell Technologies) at a final concentration of 5×10^2 cells per dish, the tubes were vortexed and allowed to stand for 5 minutes at room temperature. Next, the MethoCult mixtures were dispensed into 35 mm dishes (Corning Incorporated) through blunt end needles (StemCell Technologies) and 5 ml syringes (BD Biosciences) at a volume of 1.1 ml per dish. The medium was evenly distributed across the surface of each dish by gentle tilting and rotation. The dishes were then placed in a 100 mm culture dish (Grenier Bio-One) containing additional 35 mm dishes with sterile water to maintain humidity. The culture dish was then placed at 37° C. in a humidified incubator containing 5% CO2 for 13 days. The number of myeloid and erythroid derived colonies in both the treated and control dishes were counted and compared.

Data set [2] in a line: Solubility assessment at 20 mg/ml. The format is physicochemical. Particulars: for 20 mg/ml Solubility: dissolved in DMSO, diluted in DMEM. On the procedure: Solubility is an important property for therapeutic drug candidates. Poor solubility can lead to low bioavailability resulting in suboptimal drug delivery. It can also prevent the evaluation of test agents in animals because the concentration(s) needed to achieve the desired effect cannot be achieved to poor solubility. For solubility assessments, small molecules targeting RSK were compared. For these assessments, 100 mM solutions of the compounds dissolved in DMSO were diluted in DMEM growth media (Life Technologies) supplemented with fetal bovine serum (FBS, Life Technologies) and 100 units/ml penicillin and 100 units/ml streptomycin (Life Technologies) to make 20 mg/ml solutions. Once diluted, the solutions were vortexed and examined for the formation of precipitates. […] For Compound 26, a 100 mM solution of the compound dissolved in DMSO was diluted in phosphate buffered saline (Life Technologies) to make a 20 mg/ml solution. The stock of […] was chosen because this is the upper end of what would be required to dose mice for a range of studies including MTD, PK, PD and efficacy. The pH of this solution was determined to be 2, as previously described. […] At high concentrations some RSK inhibitors were highly soluble while others were not. Compound 0 is (R)—N-(1-benzyl-1H-pyrazol-4-yl)-9-methyl-6-oxo-6,7,8,9-tetrahydropyrido[3′,2′:4,5]pyrrolo[1,2-a]pyrazine-2-carboxamide. Compound 0 was not soluble, whereas Compounds 18, 20, 21, 25 and 26 were soluble under the same conditions (Table 5).

Another data set deals with HLA-DRA mRNA. Description: Immuno-oncology: HLA-DRA mRNA expression. Format: cell-based, Human. The following applies: MDA-MB-231 and JIMT-1 cells; Compound 16 2 or 4 uM, Compound 18 1, 2, or 4 uM. From the text:
(§4) A key feature of cancer is low immunogenicity. This can occur by several mechanisms that allow the cells to escape immune recognition. […] HLA-DRA is a member of MHC-II genes and CIITA is the master regulator of MHC II transcription. Thus it was surprising that CIITA, which would be expected to regulate MHC II gene expression, was not altered by RSK inhibition. […] HLA-DRA is important for immune recognition while PD-L1 is involved in immune checkpoints.

The subject of the next data set is CIITA mRNA. The data set can be described thus: Immuno-oncology: CIITA mRNA expression. The format is cell-based, Human. The following applies: MDA-MB-231 and JIMT-1 cells; Compound 16 2 or 4 uM, Compound 18 1, 2, or 4 uM.
Source text: as §4

The test system of data set [3] is CD274, the gene that encodes PD-L1. The data set can be described thus: Immuno-oncology: CD274 expression in MDA-MB-231 cells. The format is cell-based, Human. Particulars: Compound 16 2 or 4 uM, Compound 18 1, 2 or 4 uM.
Source text: as §4

Data set [4] shares this test system. The data set can be described thus: Immuno-oncology: CD274 expression in JIMT-1 cells. Format: cell-based, Human. Particulars: 1-20 uM.
Source text: as §4

Data set [5] relates to phosphorylated Y-box binding protein-1 (YB-1) at serine 102 (P—YB-1S102). Description: Immunoblotting of phosphorylated YB-1 in MDA-MB-231 cells.
Protocol: Following desired experimental conditions, breast cancer cell lines grown and treated in 6 well plates or 100 mm culture dishes (Grenier Bio-One) were placed on ice and the supernatant from each well was removed and the cells were washed in cold PBS. Following removal of PBS, cells were exposed to radioimmunoprecipitation assay (RIPA) buffer (50 mM Tris-HCl (pH 8), 150 mM NaCl, 1% NP-40, 0.5% sodium deoxycholate, 0.1% SDS; Fisher Scientific) supplemented with 1% phosphatase inhibitor (Fisher Scientific) and 1% protease inhibitor (Fisher Scientific) for 10 minutes. Samples were transferred to eppendorf tubes, vortexed and then centrifuged at 14 000 rpm for 10 minutes. Supernatants were collected as whole cell lysates. For mouse tumour tissues, each sample was place in a 35 mm culture dish with complete RIPA lysis buffer. The samples were diced in the buffer on ice with a sterile scalpel (VWR) and the buffer and tissue were transferred to an eppendorf tube. The samples were left on ice for 10 minutes with periodic vortexing every 2 to 3 minutes. The samples were then transferred to a Qiashredder (Qiagen) and centrifuged at 14 000 rpm for 2 minutes. The flow through was transferred to a new eppendorf tube and the samples were centrifuged again at 14 000 rpm for 5 minutes. Supernatants were collected as whole cell lysates.
For the majority of experiments in this study, 30 μg of protein per well was loaded. Samples were then resolved on SDS-PAGE (polyacrylamide gel electrophoresis) using various percentages of acrylamide gels (8%-12%), depending on the proteins of interest. […] For certain immunoblots, bands of proteins of interest were scanned and band intensity ratios were determined by densitometric analysis (ImageJ). […] To assess whether cells are actively undergoing cell death, the activity of poly ADP ribose polymerase (PARP) (1:1000 CST) was also measured using the immunoblotting method.
The test system of data set [6] is All cell lines of Tables 6A and 6B. The data set can be described thus: Monolayer growth inhibition, Alamar blue, range over all cell lines. Format: cell-based. Particulars: 120 h, read-out: IC50 Values - Alamar Blue (5 Days), Range.
Protocol: 1×10^3 cells per well were seeded for a final volume of 200 μl per well and plates were incubated for 5 days at 37° C. in a humidified incubator with 5% CO2. Following the incubation period, cell survival was quantified by Alamar blue assay (Life Technologies). Briefly, media from each well was replaced with 100 μl of phosphate buffer saline (PBS, Life Technologies) and cells were incubated with 5% Alamar blue, which incorporates a propriety redox indicator that changes colour in response to metabolic activity, for up to 2 hours. During this period of incubation, the absorbance at 570 nm and 600 nm was measured at various time points, depending on the cell line or sample. Percent survival was calculated by comparing the absorbance ratio of the test well to the control well multiplied by 100%, as indicated in the following formula:
Data set [7] concerns All cell lines of Tables 7A and 7B. The data set can be described thus: Monolayer growth inhibition, crystal violet, range over all cell lines. The format is cell-based. Particulars: 120 h, read-out: IC50 Values - Crystal Violet (5 Days), Range.

SMILES strings stand for the structures.

Sequence of RSK3 (Q15349 whole entry): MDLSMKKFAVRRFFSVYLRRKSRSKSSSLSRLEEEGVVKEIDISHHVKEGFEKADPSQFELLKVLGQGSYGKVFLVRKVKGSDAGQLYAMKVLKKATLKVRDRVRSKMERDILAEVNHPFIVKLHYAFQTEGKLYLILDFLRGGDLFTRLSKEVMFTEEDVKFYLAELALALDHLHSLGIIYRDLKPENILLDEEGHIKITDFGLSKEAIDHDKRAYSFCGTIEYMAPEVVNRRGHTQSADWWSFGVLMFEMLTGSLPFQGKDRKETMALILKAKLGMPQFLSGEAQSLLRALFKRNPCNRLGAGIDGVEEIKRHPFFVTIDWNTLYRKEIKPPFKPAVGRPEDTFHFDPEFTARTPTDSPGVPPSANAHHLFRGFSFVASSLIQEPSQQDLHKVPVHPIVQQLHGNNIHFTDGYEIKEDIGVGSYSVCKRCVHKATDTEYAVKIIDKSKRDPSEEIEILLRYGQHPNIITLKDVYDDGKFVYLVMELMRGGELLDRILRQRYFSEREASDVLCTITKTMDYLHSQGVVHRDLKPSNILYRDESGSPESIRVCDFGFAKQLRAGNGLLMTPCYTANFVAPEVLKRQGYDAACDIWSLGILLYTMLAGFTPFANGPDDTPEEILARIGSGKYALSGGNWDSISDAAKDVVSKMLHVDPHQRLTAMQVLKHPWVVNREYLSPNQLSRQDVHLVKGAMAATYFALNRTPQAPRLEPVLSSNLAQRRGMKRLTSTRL
Sequence of RSK1 (Q15418 whole entry): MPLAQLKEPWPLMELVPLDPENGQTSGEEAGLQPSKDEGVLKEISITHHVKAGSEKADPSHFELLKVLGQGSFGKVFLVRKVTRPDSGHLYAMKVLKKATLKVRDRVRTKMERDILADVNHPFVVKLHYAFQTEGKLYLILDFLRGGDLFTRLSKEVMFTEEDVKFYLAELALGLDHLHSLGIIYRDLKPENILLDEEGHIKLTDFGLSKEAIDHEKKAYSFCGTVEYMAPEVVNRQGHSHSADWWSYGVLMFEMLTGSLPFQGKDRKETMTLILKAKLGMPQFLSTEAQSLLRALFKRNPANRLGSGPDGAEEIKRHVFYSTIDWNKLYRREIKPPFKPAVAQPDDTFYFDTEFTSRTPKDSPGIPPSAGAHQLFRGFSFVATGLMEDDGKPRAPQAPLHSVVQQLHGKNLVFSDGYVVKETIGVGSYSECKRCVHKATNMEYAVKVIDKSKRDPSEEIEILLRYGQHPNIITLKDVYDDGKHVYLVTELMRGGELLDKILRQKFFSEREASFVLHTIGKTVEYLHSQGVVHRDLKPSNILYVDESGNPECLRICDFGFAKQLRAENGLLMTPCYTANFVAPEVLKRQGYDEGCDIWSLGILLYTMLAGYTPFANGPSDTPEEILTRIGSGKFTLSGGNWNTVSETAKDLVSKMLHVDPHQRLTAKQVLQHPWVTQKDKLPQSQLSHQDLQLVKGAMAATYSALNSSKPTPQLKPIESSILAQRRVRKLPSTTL
Sequence of RSK4 (Q9UK32 whole entry): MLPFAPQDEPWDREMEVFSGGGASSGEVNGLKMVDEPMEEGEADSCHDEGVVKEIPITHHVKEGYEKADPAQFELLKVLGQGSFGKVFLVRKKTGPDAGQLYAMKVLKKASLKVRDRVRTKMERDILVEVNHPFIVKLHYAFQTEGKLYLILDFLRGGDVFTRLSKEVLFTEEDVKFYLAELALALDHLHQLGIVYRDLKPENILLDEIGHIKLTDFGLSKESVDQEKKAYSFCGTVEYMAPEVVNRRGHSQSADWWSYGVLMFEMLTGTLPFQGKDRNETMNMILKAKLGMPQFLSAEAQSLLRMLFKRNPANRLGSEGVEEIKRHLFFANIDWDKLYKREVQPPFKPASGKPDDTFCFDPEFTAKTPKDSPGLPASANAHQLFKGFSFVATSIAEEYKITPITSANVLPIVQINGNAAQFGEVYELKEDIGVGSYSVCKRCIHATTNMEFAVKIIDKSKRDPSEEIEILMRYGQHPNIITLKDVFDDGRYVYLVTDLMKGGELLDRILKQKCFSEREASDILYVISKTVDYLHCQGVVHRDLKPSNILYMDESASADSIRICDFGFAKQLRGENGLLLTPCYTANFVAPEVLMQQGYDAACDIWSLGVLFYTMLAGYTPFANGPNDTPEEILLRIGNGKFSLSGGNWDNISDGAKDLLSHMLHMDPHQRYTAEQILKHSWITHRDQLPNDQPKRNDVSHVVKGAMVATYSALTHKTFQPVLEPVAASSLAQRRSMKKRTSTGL
Sequence of RSK2 (P51812 whole entry): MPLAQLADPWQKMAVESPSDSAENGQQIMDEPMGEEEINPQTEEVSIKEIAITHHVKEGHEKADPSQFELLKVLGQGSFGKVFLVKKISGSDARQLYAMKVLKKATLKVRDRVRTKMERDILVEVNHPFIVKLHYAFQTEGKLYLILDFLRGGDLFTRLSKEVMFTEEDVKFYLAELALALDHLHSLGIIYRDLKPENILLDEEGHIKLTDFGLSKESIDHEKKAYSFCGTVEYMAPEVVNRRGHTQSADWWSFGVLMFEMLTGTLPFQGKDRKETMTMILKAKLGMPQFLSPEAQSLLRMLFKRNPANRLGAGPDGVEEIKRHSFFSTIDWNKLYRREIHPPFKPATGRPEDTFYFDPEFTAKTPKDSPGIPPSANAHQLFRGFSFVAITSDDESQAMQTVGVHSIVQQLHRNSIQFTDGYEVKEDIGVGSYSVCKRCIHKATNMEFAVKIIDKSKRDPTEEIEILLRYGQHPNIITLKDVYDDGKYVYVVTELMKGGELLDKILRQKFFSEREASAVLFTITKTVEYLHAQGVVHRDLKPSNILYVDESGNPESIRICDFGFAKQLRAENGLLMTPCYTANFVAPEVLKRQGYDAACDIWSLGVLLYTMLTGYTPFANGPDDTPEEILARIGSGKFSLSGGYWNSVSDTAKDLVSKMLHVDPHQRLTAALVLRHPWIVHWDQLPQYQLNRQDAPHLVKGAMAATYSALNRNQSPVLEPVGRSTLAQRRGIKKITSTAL

Take `C[C@@H]1CNC(=O)c2cc3ccc(NC(=O)c4cnn(Cc5ccccc5)c4)nc3n21` [Compound 15, (R)-1-benzyl-N-(9-methyl-6-oxo-6,7,8,9-tetrahydropyrido[3′,2′:4,5]pyrrolo[1,2-a]pyrazin-2-yl)-1H-pyrazole-4-carboxamide]: the IC50 at RSK2 came to 94 nM; on RSK1, 23.6 nM; against RSK3, 6 nM; at RSK4 it was 8 nM. Besides, the viability at 13 days, […] in data set [1] was 100%.
For `C[C@@H]1CNC(=O)c2cc3ccc(C(=O)Nc4cnn(Cc5ccc(N)cc5)c4)nc3n21` [Compound 18, (R)—N-(1-(4-aminobenzyl)-1H-pyrazol-4-yl)-9-methyl-6-oxo-6,7,8,9-tetrahydropyrido[3′,2′:4,5]pyrrolo[1,2-a]pyrazine-2-carboxamide], the IC50 worked out at 12 nM against RSK2, 2 nM against RSK1, 1.7 nM against RSK3 and 0.3 nM against RSK4. Moreover, the pH in data set [2] (20 mg/ml solution, DMSO diluted in DMEM) is on record as 9. In addition, the “20 mg/ml Solubility” value in [2] is listed as “Soluble”. Further, the “levels of HLA-DRA mRNA” value in the data set with HLA-DRA mRNA is on record as “elevated”. In the data set with CIITA mRNA, the “mRNA expression of CIITA” value is listed as “little effect”. Besides, in data set [3], the “levels of CD274” value is “reduced”. The CD274 entry in [4] is on record as “inhibited”. Also, the “loss of P—YB-1” value in data set [5] (MDA-MB-231, 0.01, 0.1, 1, or 10 uM, 24 hrs) is “dose dependent loss”; in data set [5] (MDA-MB-231, 0.01-1 uM, 96 hrs) it was “dose dependent loss”.
Consider `C[C@@H]1CNC(=O)c2cc3ccc(C(=O)Nc4cnn(Cc5ccc(F)cc5F)c4)nc3n21` [Compound 23, (R)—N-(1-(2,4-difluorobenzyl)-1H-pyrazol-4-yl)-9-methyl-6-oxo-6,7,8,9-tetrahydropyrido[3′,2′:4,5]pyrrolo[1,2-a]pyrazine-2-carboxamide], for which the “20 mg/ml Solubility” value in [2] is given as “Precipitate”. For the same molecule, the values for the IC50 in data set [6] and in data set [7] were 1100 to 19800 nM and 1100 to 15000 nM, respectively.
